In patent publication US9850282B2, “Stable pentadecapeptide salts, a process for preparation thereof, a use thereof in the manufacture of pharmaceutical preparations and a use thereof in therapy” (priority 2013, dated 2017):
Read-outs that look alike come from different tables or passages of the source. No end group written: not given here.

What was measured:
[1] = Collateral vessel presentation after femoral artery removal; format: in vivo, rats; conditions: 5-10 min after removal of femoral artery part; local 1 min bath (bepecin 10 μg/kg, L-arginine 100 mg/kg, L-NAME 5 mg/kg)
Source text: Bepecin has a particular beneficial effect after large blood vessel removal. Unlike L-NAME and L-arginine, bepecin rapidly bridges defect between the stumps of the vessel, thus even in the case of the worst scenario, rapidly reorganizing blood supply. Part of femoral artery in rats (between a. epigastrica caudalis and a. femoralis circumflexa lateralis) was removed in order to investigate collateral vessel presentation within vascular defect following formation of critical size vascular defect. Collateral vessel presentation within vascular defect was assessed according to the method described for microangiographic assessment in Cardiovasc Res. 1997 September; 35(3): 547-52. Thermographic imaging was performed using an infrared camera.

[2] = test system: HSV-1 and HSV-2; assay: Newborn mice, intracerebral inoculation with HSV-1 and HSV-2; format: in vivo; conditions: lethally infected newborn mice; agents applied 48 or 72 hours after viral infection; bepecin 10 and 100 μg/kg, acyclovir 10 and 100 mg/kg
[3] = Anaphylactoid reaction induced by dextran and/or egg white; format: in vivo, rats, mouse; conditions: dextran and/or egg white i.v.; bepecin 10 μg, 1 μg, 10 ng, 10 pg/kg; clomipramine 20 mg/kg, cimetidine 10 mg/kg alone
[4] = Accelerated ageing at 50° C. and relative humidity of 65%; format: physicochemical
[5] = Stability in water solutions (1 g/100 ml) at 50° C.; format: physicochemical; conditions: for Pentadecapeptide content decrement in water at 50° C./time (hours): 20: 20 hours; for Pentadecapeptide content decrement in water at 50° C./time (hours): 65: 65 hours; for Pentadecapeptide content decrement in water at 50° C./time (hours): 148: 148 hours; for Pentadecapeptide content decrement in water at 50° C./time (hours): 388: 388 hours; for Pentadecapeptide content decrement in water at 50° C./time (hours): start/0: start/0 hours
Description: (§1) This addition will be in the range from 0.5 mg to 3.0 mg per 1 mg of bepecin. […] The stability of bepecin salt with L-arginine in water solutions was determined after incubation of aqueous salt solutions in concentration 1 g/100 ml, at 50° C., and in a separate test in very stringent conditions: at 100° C., where the decomposition was determined after one hour.

[6] = Stability in water at 100° C., 1 hour; format: physicochemical
Description: as §1

[7] = simulated gastric fluid, 37° C.
[8] = Acute toxicity; format: in vivo, Wistar Albino rats; conditions: 1 g/kg body weight, intraperitoneally, intravenously or intragastrically
[9] = 37° C.; for Pentadecapeptide content decrement (rel. %) in gastric juice at pH = 2.0, 2.5 hours: 150 min; for Pentadecapeptide content decrement (rel. %) in gastric juice at pH = 4.0, 6 hours: 360 min; for Pentadecapeptide content decrement (rel. %) in gastric juice at pH = 4.0, 7 hours: 420 min; for Pentadecapeptide content decrement (rel. %) in gastric juice at pH = 4.0, 8 hours: 480 min; for Pentadecapeptide content decrement (rel. %) in gastric juice at pH = 2.0, 1.5 hours: 90 min
[10] = 1 g/100 ml of water, 20° C., 253.7 nm, 70 min
[11] = in vitro; conditions: artificial gastric juice with pepsin, 37° C.
[12] = intravenously, orally or intraperitoneally, 10 ng to 100 mg/kg; cited from earlier work
[13] = Bleeding and thrombocytopenia after amputation; format: in vivo, rats; conditions: bepecin by itself
Description: Bepecin was administered intraperitoneally, intravenously or intragastrically (10 μg/kg, 10 ng/kg body weight).

[14] = pH 2, Pentadecapeptide content decrement (rel. %) in gastric juice at pH = 2.0, 0.5 hours, pH 2.0
[15] = pH 3, Pentadecapeptide content decrement (rel. %) in gastric juice at pH = 3.0, 0.5 hours, pH 3.0
[16] = pH 2, Pentadecapeptide content decrement (rel. %) in gastric juice at pH = 2.0, 1.0 hours, pH 2.0, 1.0 h
[17] = pH 2, Pentadecapeptide content decrement (rel. %) in gastric juice at pH = 2.0, 2.0 hours, pH 2.0, 2.0 h
[18] = pH 4, Pentadecapeptide content decrement (rel. %) in gastric juice at pH = 4.0, 3 hours, pH 4.0, 3 h
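For Pentadecapeptide content decrement (rel. %) in gastric juice at pH = 2.0, 0 hours in this document: peptide salt at 10 mg/5 ml incubated in artificial gastric juice (HCl, NaCl, pepsin 1.0 g/l) at the listed pH and 37° C, peptide content tracked over time.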
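For Pentadecapeptide content decrement (rel. %) in gastric juice at pH = 2.0, 2.5 hours in this document: peptide salt at 10 mg/5 ml incubated in artificial gastric juice (HCl, NaCl, pepsin 1.0 g/l) at the listed pH and 37° C, peptide content tracked over time.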
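For Pentadecapeptide content decrement (rel. %) in gastric juice at pH = 3.0, 0 hours in this document: peptide salt at 10 mg/5 ml incubated in artificial gastric juice (HCl, NaCl, pepsin 1.0 g/l) at the listed pH and 37° C, peptide content tracked over time.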
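For Pentadecapeptide content decrement (rel. %) in gastric juice at pH = 3.0, 3.0 hours in this document: peptide salt at 10 mg/5 ml incubated in artificial gastric juice (HCl, NaCl, pepsin 1.0 g/l) at the listed pH and 37° C, peptide content tracked over time.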

COC(=O)[C@@H](N)CCCNC(=N)N[N+](=O)[O-] [L-NAME]
Collateral vessel presentation within vascular defect [1]: no collateral vessels are present

N=C(N)NCCC[C@H](N)C(=O)O [L-arginine]
Collateral vessel presentation within vascular defect [1]: Tiny collateral vessels were present, yet without interconnections

Nc1nc2c(ncn2COCCO)c(=O)[nH]1 [acyclovir]
Survival time (max.) [2]: 115 h
Survival time (min.) [2]: 105 h

CN/C(=N/CCSCc1nc[nH]c1C)NC#N [cimetidine]
Effect on anaphylactoid reactions [3]: only poorly effective or even ineffective

CN(C)CCCN1c2ccccc2CCc2ccc(Cl)cc21 [clomipramine]
Effect on anaphylactoid reactions [3]: only poorly effective or even ineffective

Bepecin L-Lysine Salt (1:3) [Lys-BPC]
Pentadecapeptide content decrement in standing at 50° C. and relat. humidity 65%: 0 day ([4]; 0 day): 99.47%
Pentadecapeptide content decrement in standing at 50° C. and relat. humidity 65%: 10 days ([4]; 10 days): 99.24%
Pentadecapeptide content decrement in standing at 50° C. and relat. humidity 65%: 30 days ([4]; 30 days): 99.27%
Pentadecapeptide content decrement in standing at 50° C. and relat. humidity 65%: 60 days [4]: 98.90%
Pentadecapeptide content decrement in standing at 50° C. and relat. humidity 65%: 90 days [4]: 99.28%
Pentadecapeptide content decrement in water at 50° C./time (hours): 20 [5]: 99.40%
Pentadecapeptide content decrement in water at 50° C./time (hours): 65 [5]: 99.09%
Pentadecapeptide content decrement in water at 50° C./time (hours): 148 [5]: 99.35%
Pentadecapeptide content decrement in water at 50° C./time (hours): 388 [5]: 99.01%
Pentadecapeptide content decrement in water at 50° C./time (hours): start/0 [5]: 99.07%

GEPPPGKPADDAGLV [Arg-BPC, bepecin L-arginine salt (1:2)]
Pentadecapeptide content decrement in standing at 50° C. and relat. humidity 65%: 60 days [4]: 98.96%
Pentadecapeptide content decrement in standing at 50° C. and relat. humidity 65%: 90 days [4]: 99.07%
Pentadecapeptide content decrement in water at 50° C./time (hours): 20 [5]: 98.97%
Pentadecapeptide content decrement in water at 50° C./time (hours): 65 [5]: 99.04%
Pentadecapeptide content decrement in water at 50° C./time (hours): 148 [5]: 99.10%
Pentadecapeptide content decrement in water at 50° C./time (hours): 388 [5]: 99.01%
pH ([5]; aqueous salt solution 1 g/100 ml): 7.35
Pentadecapeptide content decrement in water at 50° C./time (hours): start/0 [5]: 99.05%
Pentadecapeptide content decrement in water at 100° C. - 1 hour: after 1 hour ([6]; after 1 hour): 99.08% (unchanged!)
Pentadecapeptide content decrement in water at 100° C. - 1 hour: start ([6]; start): 99.05%
remaining at 0.5 h [7, 14]: 30.2%
remaining at 0.5 h [7, 15]: 98.1%
remaining at 1 h ([7]; pH 4, Pentadecapeptide content decrement (rel. %) in gastric juice at pH = 4.0, 1 hours, pH 4.0, 1 h): 99.9%
remaining at 2 h ([7]; pH 4, Pentadecapeptide content decrement (rel. %) in gastric juice at pH = 4.0, 2 hours, pH 4.0, 2 h): 99.5%
Acute toxicity [8]: no toxicity and no adverse effects
Pentadecapeptide content decrement (rel. %) in gastric juice at pH = 2.0, 0 hours [9]: 100 rel. %
Pentadecapeptide content decrement (rel. %) in gastric juice at pH = 2.0, 2.5 hours [9]: 4.9 rel. %
Pentadecapeptide content decrement (rel. %) in gastric juice at pH = 3.0, 0 hours [9]: 100 rel. %
Pentadecapeptide content decrement (rel. %) in gastric juice at pH = 3.0, 3.0 hours ([9]; 180 min): 90.0 rel. %
Pentadecapeptide content decrement (rel. %) in gastric juice at pH = 4.0, 0 hours ([9]; pH 4.0): 100 rel. %
Pentadecapeptide content decrement (rel. %) in gastric juice at pH = 4.0, 6 hours ([9]; pH 4.0): 84.6 rel. %
Pentadecapeptide content decrement (rel. %) in gastric juice at pH = 4.0, 7 hours ([9]; pH 4.0): 73.5 rel. %
Pentadecapeptide content decrement (rel. %) in gastric juice at pH = 4.0, 8 hours ([9]; pH 4.0): 67.2 rel. %
Stability of aqueous solution under ultraviolet light [10]: stable
remaining at 1 h [11, 16]: 13.5%
remaining at 1.5 h, 10 mg/5 ml ([11]; pH 2, Pentadecapeptide content decrement (rel. %) in gastric juice at pH = 2.0, 1.5 hours, pH 2.0, 1.5 h): 8.2%
remaining at 2 h [11, 17]: 6%
remaining at 4 h, 10 mg/5 ml ([11]; pH 3, Pentadecapeptide content decrement (rel. %) in gastric juice at pH = 3.0, 4.0 hours, pH 3.0, 4.0 h): 87.2%
remaining at 5 h, 10 mg/5 ml ([11]; pH 3, Pentadecapeptide content decrement (rel. %) in gastric juice at pH = 3.0, 5.0 hours, pH 3.0, 5.0 h): 84.9%
remaining at 3 h, 10 mg/5 ml [11, 18]: 98.7%
remaining at 4 h, 10 mg/5 ml ([11]; pH 4, Pentadecapeptide content decrement (rel. %) in gastric juice at pH = 4.0, 4 hours, pH 4.0, 4 h): 96.1%
remaining at 5 h, 10 mg/5 ml ([11]; pH 4, Pentadecapeptide content decrement (rel. %) in gastric juice at pH = 4.0, 5 hours, pH 4.0, 5 h): 89.8%

GEPPPGKPADDAGLV [BPC Na salt]
Pentadecapeptide content decrement (rel. %) in gastric juice at pH = 2.0, 0 hours [9]: 100 rel. %
Pentadecapeptide content decrement (rel. %) in gastric juice at pH = 2.0, 1.5 hours [9]: 4.4 rel. %
Pentadecapeptide content decrement (rel. %) in gastric juice at pH = 2.0, 2.5 hours [9]: 2.7 rel. %
Pentadecapeptide content decrement (rel. %) in gastric juice at pH = 3.0, 0 hours [9]: 100 rel. %
Pentadecapeptide content decrement (rel. %) in gastric juice at pH = 3.0, 3.0 hours ([9]; 180 min): 40.2 rel. %
Pentadecapeptide content decrement (rel. %) in gastric juice at pH = 4.0, 0 hours ([9]; pH 4.0): 100 rel. %
Pentadecapeptide content decrement (rel. %) in gastric juice at pH = 4.0, 3 hours ([9]; pH 4.0, 3 h, 180 min): 94.6 rel. %
Pentadecapeptide content decrement (rel. %) in gastric juice at pH = 4.0, 6 hours ([9]; pH 4.0): 76.3 rel. %
Pentadecapeptide content decrement (rel. %) in gastric juice at pH = 4.0, 7 hours ([9]; pH 4.0): 68.2 rel. %
Pentadecapeptide content decrement (rel. %) in gastric juice at pH = 4.0, 8 hours ([9]; pH 4.0): 60.9 rel. %

GEPPPGKPADDAGLV [BPC acetate]
remaining at 1 h [7, 16]: 8.2%
remaining at 2 h [7, 17]: 2.46%
remaining at 3 h ([7]; pH 3, Pentadecapeptide content decrement (rel. %) in gastric juice at pH = 3.0, 3.0 hours, pH 3.0, 3.0 h): 2.5%
remaining at 3 h [7, 18]: 72.5%
Pentadecapeptide content decrement (rel. %) in gastric juice at pH = 2.0, 0 hours [9]: 100 rel. %
Pentadecapeptide content decrement (rel. %) in gastric juice at pH = 2.0, 1.5 hours [9]: 4.75 rel. %
Pentadecapeptide content decrement (rel. %) in gastric juice at pH = 2.0, 2.5 hours [9]: 2.1 rel. %
Pentadecapeptide content decrement (rel. %) in gastric juice at pH = 3.0, 0 hours [9]: 100 rel. %
Pentadecapeptide content decrement (rel. %) in gastric juice at pH = 4.0, 0 hours ([9]; pH 4.0): 100 rel. %
Pentadecapeptide content decrement (rel. %) in gastric juice at pH = 4.0, 6 hours ([9]; pH 4.0): 48.8 rel. %
Pentadecapeptide content decrement (rel. %) in gastric juice at pH = 4.0, 7 hours ([9]; pH 4.0): 44.6 rel. %
Pentadecapeptide content decrement (rel. %) in gastric juice at pH = 4.0, 8 hours ([9]; pH 4.0): 38.0 rel. %
remaining at 0.5 h, 10 mg/5 ml [11, 14]: 21.4%
remaining at 0.5 h, 10 mg/5 ml [11, 15]: 41.7%

Gly Glu Pro Pro Pro Gly Lys Pro Ala Asp Asp Ala Gly Leu Val (GEPPPGKPADDAGLV; also: salts with basic amino acids) [Peptide bepecin]
Toxic changes (LD50, acute, subchronic and chronic toxicity) [12]: did not induce any toxic changes

H-GEPPPGKPADDAGLV-OH [Bepecin]
Coagulation parameters [13]: does not affect the coagulation parameters by itself
